Entries after “also recorded” stand apart in the source; their conditions may differ. Like-named read-outs stand apart in the source and are kept apart here.
Test system: human breast cancer cell lines (MDA MB 231, MDA MB 435, MCF-7)
Assay: Cytotoxic activity: cell proliferation (crystal violet staining) of human breast cancer cell lines
Protocol: All human tumor cell lines were obtained from the American Type Culture Collection. Cells were grown as monolayers in IMEM containing 10% fetal bovine serum without antibiotics. The cells were maintained in a humidified, 5% CO2 atmosphere at 37° C.
After trypsinization, the cells were counted and adjusted to a concentration of 1,000-2,000 cells per 100 mL. Cell proliferation was determined by plating the cells (1,000-2,000 cells/well) in a 96 well microtiter plate. After addition of 100 μL cells per well, the cells were allowed to attach for 24 hours. […] The polyphenols were dissolved in media at a 2 fold concentration and 100 μL of each solution was added in triplicate wells. On consecutive days, the plates were stained with 50 μL crystal violet (2.5 g crystal violet dissolved in 125 mL methanol, 375 mL water), for 15 min. The stain was removed and the plate was gently immersed into cold water to remove excess stain. The washings were repeated two more times, and the plates allowed to dry. The remaining stain was solubilized by adding 100 μL of 0.1 M sodium citrate/50% ethanol to each well. After solubilization, the number of cells were quantitated on an ELISA plate reader at 540 nm (reference filter at 410 nm).
Error bars represent +/− standard deviation of three replicate measurements.

[1] = breast cancer cell lines investigated, four days, various μg/mL concentrations, FIG. 1(a)-(d)

Row | SMILES | cytotoxicity (cancer cell line growth at the end of four days as percent growth of the control) [1] | antineoplastic activity against several human breast cancer cell lines (comparison in words) (in vitro assessment of Example 25) | cytotoxicity (cancer cell line growth at the end of four days as percent growth of the control)
1 | O=C(OC1Cc2c(O)cc(O)c(C3c4c(O)cc(O)c(C5c6c(O)cc(O)cc6OC(c6ccc(O)c(O)c6)C5OC(=O)c5cc(O)c(O)c(O)c5)c4OC(c4ccc(O)c(O)c4)C3OC(=O)c3cc(O)c(O)c(O)c3)c2OC1c1ccc(O)c(O)c1)c1cc(O)c(O)c(O)c1 (stereo not drawn) [synthetic epicatechin trimer trisgallate, [EC-3-O-galloyl-(4β→8)]2-EC-3-O-gallate] | cytotoxic effect equivalent to the pentamer and/or epigallocatechin gallate | activity equivalent to the pentamer; also recorded: greater antineoplastic activity when compared to the underivatized dimer and trimer | 
2 | Oc1cc(O)c2c(c1)O[C@H](c1ccc(O)c(O)c1)[C@H](O)[C@H]2c1c(O)cc(O)c2c1O[C@H](c1ccc(O)c(O)c1)[C@H](O)C2 [synthetic epicatechin dimer, EC-(4β→8)-EC] |  |  | no cytotoxicity
3 | Oc1cc(O)c2c(c1)O[C@H](c1ccc(O)c(O)c1)[C@H](O)C2 [monomer (epicatechin), epicatechin, reference compound] | no cytotoxicity |  | 

— patent US6420572B1, “Synthetic methods for preparation of protected proanthocyanidin(s)” (Mars, Incorporated, priority 1997, dated 2002)
